These results are taken from PMC5668913 (Biochemistry and Biophysics Reports, 2015).

pKd: −log10 of the molar value.

In the assay the target is T1, MbRIP1 (type 1 ribosome inactivating protein from Momordica balsamina) (Momordica balsamina, UniProt D9J2T9).
T1 sequence (D9J2T9 1-246): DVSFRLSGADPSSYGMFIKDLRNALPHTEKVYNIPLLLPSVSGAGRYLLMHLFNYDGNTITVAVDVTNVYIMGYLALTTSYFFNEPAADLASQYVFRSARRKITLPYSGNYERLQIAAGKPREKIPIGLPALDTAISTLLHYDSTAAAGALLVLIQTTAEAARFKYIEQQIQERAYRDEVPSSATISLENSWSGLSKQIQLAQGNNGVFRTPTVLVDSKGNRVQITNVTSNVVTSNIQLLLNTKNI
The experiment in a line: Binding studies using fluorescence.

Regarding `Nc1cc[nH]c(=O)n1` [CYS, cytosine], the pKd is ~3.64.
The result for `Nc1ccn([C@@H]2O[C@H](CO)[C@@H](O)[C@H]2O)c(=O)n1` [CYT, cytidine] reads ~5.30.
